Tests used:
[1] = tested on: GS-109-V-20 human skin cell fibroblasts; assay: Fibroblast assay: proliferation of GS-109-V-20 skin cell fibroblasts; assay type: cell-based; settings: for effect on GS-109-V-20 fibroblast proliferation in words: text
Protocol: The effect of methyl 3-O-3'-(N',N'-dimethylamino-n-propyl)-6-deoxy-D-glucopyranoside on the proliferative capacity of human GS-109-V-20 skin fibroblasts was measured with the use of ^3 H-thymidine incorporation assay. Cultured skin cells were detached from the surface of tissue culture flasks mechanically with a Teflon scraper. The cells were washed, resuspended in incubation medium and the viabilities determined. These cells were then plated in triplicate at a density of 1×10^3 cells/0.1 ml/microtiter well. To these cells was added 0.1 ml incubation medium containing the methyl 3-O-3'-(N',N'-dimethylamino-n-propyl)-6-deoxy-D-glucopyranoside compound.
(§1) After 3 days of culture, 1#uCi ^3 H-thymidine was added in 50 ul volume to each culture well of the microtiter plates. Eighteen hours later, each of the GS-109-V-20 cultures was examined morphologically for evidence of drug-induced toxicity such as cell rounding or granularity. The ^3 H-thymidine-pulsed cells were then precipitated and the amount of ^3 H-thymidine incorporation was counted on a liquid scintillation counter.
Methyl 3-O-3'-(N',N'-dimethylamino-n-propyl)-6-deoxy-D-glucopyranoside was suspended directly into the medium by extensive sonication, without being filter-sterilized. A range of doses of this compound was used to measure effects of this compound upon GS-109-V-20 cell proliferation. The following doses were used:
The human skin cell fibroblast line, GS-109-V-20, was obtained from the American Type Culture-Collection. […] These cells were selected for use because they are considered to exist in an initiated state, as opposed to being normal or transformed, and have a more extensive population doubling time and survival period in culture than do normal fibroblasts. In this regard, they would more closely reflect the biological characteristics of psoriatic or rheumatoid synovial fibroblasts which also proliferate more extensively than do normal fibroblasts, but not as extensively as immortalized transformed tumor cells.
The number of GS-109-V-20 cells was expanded for use in the described assays by culture in 25 cm^2 flasks at 37° C. in an atmosphere of 5% CO2 in air. At approximately 4-5 day intervals, or when confluence was reached, the cells were passaged. This was accomplished by detaching the cells by trypsinization, washing and reseeding the cells at a lower density into fresh tissue culture flasks.

[2] = tested on: GS-109-V-20 skin cells; assay: Morphological examination of GS-109-V-20 cultures for drug-induced toxicity; assay type: cell-based, human
Protocol: as §1

COC1O[C@H](C)[C@@H](O)[C@H](OCCCN(C)C)[C@H]1O (stereo partly drawn) [V, Methyl 3-O-3'-(N',N'-dimethylamino-n-propyl)-6-deoxy-D-glucopyranoside]
^3 H-Thymidine uptake by GS-109-V-20 skin cells ([1]; 0.001 ug/ml): 2,557 ± 258 cpm
^3 H-Thymidine uptake by GS-109-V-20 skin cells ([1]; 0.01 ug/ml): 976 ± 469 cpm
^3 H-Thymidine uptake by GS-109-V-20 skin cells ([1]; 0.1 ug/ml): 1,052 ± 177 cpm
^3 H-Thymidine uptake by GS-109-V-20 skin cells ([1]; 1 ug/ml): 1,237 ± 301 cpm
^3 H-Thymidine uptake by GS-109-V-20 skin cells ([1]; 2.5 ug/ml): 1,044 ± 106 cpm
^3 H-Thymidine uptake by GS-109-V-20 skin cells ([1]; 10 ug/ml): 900 ± 189 cpm
^3 H-Thymidine uptake by GS-109-V-20 skin cells ([1]; 25 ug/ml): 946 ± 41 cpm
^3 H-Thymidine uptake by GS-109-V-20 skin cells ([1]; 100 ug/ml): 647 ± 541 cpm
inhibition at 0.001 µg/mL ([1]; Homo sapiens, Fibroblast, 0.001 ug/ml, read-out: % effect on GS-109-V-20 proliferation): 12%
inhibition at 0.01 µg/mL ([1]; Homo sapiens, Fibroblast, 0.01 ug/ml, read-out: % effect on GS-109-V-20 proliferation): 66%
inhibition at 0.1 µg/mL ([1]; Homo sapiens, Fibroblast, 0.1 ug/ml, read-out: % effect on GS-109-V-20 proliferation): 64%
inhibition at 1 µg/mL ([1]; Homo sapiens, Fibroblast, 1 ug/ml, read-out: % effect on GS-109-V-20 proliferation): 58%
inhibition at 2.5 µg/mL ([1]; Homo sapiens, Fibroblast, 2.5 ug/ml, read-out: % effect on GS-109-V-20 proliferation): 64%
inhibition at 10 µg/mL ([1]; Homo sapiens, Fibroblast, 10 ug/ml, read-out: % effect on GS-109-V-20 proliferation): 69%
inhibition at 25 µg/mL ([1]; Homo sapiens, Fibroblast, 25 ug/ml, read-out: % effect on GS-109-V-20 proliferation): 68%
inhibition at 100 µg/mL ([1]; Homo sapiens, Fibroblast, 100 ug/ml, read-out: % effect on GS-109-V-20 proliferation): 78%
effect on GS-109-V-20 fibroblast proliferation in words ([1]; listed as Methyl 3-O-3'-(N',N'-dimethylamino-n-propyl)-6-deoxy-D-glucopyranoside): inhibitory effects on the proliferation of GS-109-V-20 human skin cell fibroblasts
effect on GS-109-V-20 fibroblast proliferation in words ([1]; listed as methyl 3-O-3'-(N',N'-dimethylamino-n-propyl)-6-deoxy-D-glucopyranoside): A significant inhibitory effect was observed in a non-dose-dependent manner
cytotoxicity in GS-109-V-20 cultures, in words [2]: without evidence of cytotoxicity
